Measurements reported in US4101669A (priority 1977, dated 1978).

Assays:
[1] = Example 2: stability of substituted acetamide in mixtures with commercial fungicides, 4 hour assay and 1-4 hour pH range; assay type: physicochemical; details: particularly in basic water
Protocol: is prepared by blending and hammer milling.
(b) 2-cyano-N-ethylcarbamoyl-2-methoxyiminoacetamide is finely ground.
The materials above are mixed with the following commercial fungicides in a ratio to provide 1 part of active compound of (a) or (b) with the indicated parts of commodity listed:
The mixtures are then added to distilled water in one case and 4.7 × 10^-3 N sodium bicarbonate (chosen to represent rather alkaline water) in the other case, at a rate to provide about 150 ppm of substituted acetamide. After 4 hours, the suspensions are assayed to determine the present substituted acetamide remaining. The pH during the 1-4 hour period is also recorded.

[2] = Example 1: stability of active ingredient at 300 ppm in severe test waters, assay after 4 hours at room temperature; assay type: physicochemical; details: for pH: after 4 hours at room temperature; for assay (as percent of original): 4 hours, room temperature
Protocol: The stability of the active ingredient formulated as above is compared with that of the pure technical material at 300 ppm in:
(a) a basic, soda-ash softened water of initial pH 10.2 with 0.66 × 10^-3 N basicity, primarily as carbonate, and
(b) a strong "sodium bicarbonate" water (prepared to match a Montana well water) with pH 8.8 and 13 × 10^-3 N basicity.
After 4 hours at room temperature in these severe test waters, the following pH readings and assays (as percent of original) were obtained.

Structure (SMILES): CCNC(=O)NC(=O)C(C#N)=NOC [pure compound, 2-cyano-N-ethylcarbamoyl-2-methoxyiminoacetamide]
- effect of acidulant on stability in mixtures with commercial fungicides [1]: the acidulant improves stability
- pH ([2]; water a)): 7.7
- assay (as percent of original) ([2]; water a): soda-ash softened, initial pH 10.2, 0.66 × 10^-3 N basicity): 43% of original
- pH ([2]; water b)): 8.2
- assay (as percent of original) ([2]; water b): strong sodium bicarbonate water, pH 8.8, 13 × 10^-3 N basicity): 16% of original
